Experimental data as given in patent US20250230171A1 (MOMA Therapeutics, Inc., priority 2023, published 2025).
Like-named read-outs stand apart in the source and are kept apart here.

Assays:
[1] = molecular target: biotinylated Avi-POLθ[2-894] (Homo sapiens (Human), UniProt O75417); experiment: POLθ ATPase assay (ADP-Glo); details: n=2, read-out: Biochemical ATPase ADPGlo IC50
DLD1 BRCA2 (−/−) cells = experiment: 7-day cell viability assay (CellTiter-Glo), DLD1 BRCA2 (−/−); assay type: cell-based, human; details: n=2, read-out: Viability IC50 (uM) DLD1 BRCA2 null
Description: Cell lines DLD1 WT and DLD1 BRCA2 (−/−) (Horizon Discovery Cat No. HD PAR-008 and HD-105-007) were plated in 384-well culture plates at seeding densities of 100cells/50 ul/well and 200 cells/50 uL/well respectively. The seeding densities are pre-determined from the growth curve kinetics performed to ensure log linear phase of cell growth for these 2 cell lines. These assay plates are then placed in the incubator at 37° C., 5% CO2, relative humidity >90% for a few hours before addition of test compounds. Compounds are dispensed using the Tecan HPD300 or Echo based on the plate map in the appropriate wells of the 384-well plates. The cells are treated with nine-point dose response with 3-fold serial dilutions of test compounds starting at 10 uM top concentration. After addition of the test compounds, the plates are incubated at 37° C., 5% CO2, relative humidity >90% for 7 days. CellTiter-Glo (Promega Cat. No. G7573), ATP detection reagent is prepared according to manufacturer's specifications. Cell assay plates are removed from incubator and bring to room temperature (RT) by letting them sit at bench top for at least 15 min. Using the MultiDrop liquid handler or a multichannel pipette, 35 μL/well of CTG is added and the plates are then placed shakes for 5 seconds, RT.

[2] = Homo sapiens, DLD-1, 168 h, 7-day viability

Sequence of biotinylated Avi-POLθ[2-894] (O75417 2-894): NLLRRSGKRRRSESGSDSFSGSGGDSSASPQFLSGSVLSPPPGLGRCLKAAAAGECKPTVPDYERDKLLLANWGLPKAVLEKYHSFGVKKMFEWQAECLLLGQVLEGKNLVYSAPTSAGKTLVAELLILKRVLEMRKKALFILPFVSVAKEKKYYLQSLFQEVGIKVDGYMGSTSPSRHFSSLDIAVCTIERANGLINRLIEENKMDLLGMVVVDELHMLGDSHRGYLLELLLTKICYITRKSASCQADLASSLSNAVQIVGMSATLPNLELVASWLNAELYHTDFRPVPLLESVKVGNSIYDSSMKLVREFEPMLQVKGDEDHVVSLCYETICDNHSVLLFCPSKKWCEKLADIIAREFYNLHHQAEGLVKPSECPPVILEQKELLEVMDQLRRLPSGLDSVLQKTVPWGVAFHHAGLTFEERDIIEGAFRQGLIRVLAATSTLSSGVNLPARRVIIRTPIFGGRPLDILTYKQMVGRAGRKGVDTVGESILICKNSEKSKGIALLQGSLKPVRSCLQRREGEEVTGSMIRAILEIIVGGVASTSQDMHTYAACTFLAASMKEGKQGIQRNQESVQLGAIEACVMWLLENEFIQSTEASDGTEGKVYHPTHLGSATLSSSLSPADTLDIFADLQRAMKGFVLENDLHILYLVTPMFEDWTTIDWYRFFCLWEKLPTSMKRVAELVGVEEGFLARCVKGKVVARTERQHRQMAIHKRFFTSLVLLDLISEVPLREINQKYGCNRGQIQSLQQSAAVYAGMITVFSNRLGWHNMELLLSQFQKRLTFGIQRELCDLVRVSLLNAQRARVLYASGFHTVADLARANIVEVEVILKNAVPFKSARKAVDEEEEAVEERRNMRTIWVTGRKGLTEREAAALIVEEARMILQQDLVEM

| IC50 [1] [µM] | Compound | other results |
| --- | --- | --- |
| 0.001 to 0.015 | COc1cnc(Cl)cc1-c1cc(C)ncc1C(=O)Nc1nc2c(s1)CN(C(=O)c1ccc(Cl)nc1OC)C2 [Example 20, 2′-chloro-N-(5-(6-chloro-2-methoxynicotinoyl)-5,6-dihydro-4H-pyrrolo[3,4-d]thiazol-2-yl)-5′-methoxy-6-methyl-[4,4′-bipyridine]-3-carboxamide] | IC50 (DLD1 BRCA2 (−/−) cells; [2]): 0.001 to 0.1 µM |
| 0.001 to 0.015 | COc1cnc(Cl)cc1-c1cc(C)ncc1C(=O)Nc1nc2c(s1)CN(C(=O)[C@H]1C[C@@H](OC(F)(F)F)C1)C2 [Example 25, 2′-chloro-5′-methoxy-6-methyl-N-(5-((1s,3s)-3-(trifluoromethoxy)cyclobutane-1-carbonyl)-5,6-dihydro-4H-pyrrolo[3,4-d]thiazol-2-yl)-[4,4′-bipyridine]-3-carboxamide] | IC50 (DLD1 BRCA2 (−/−) cells; [2]): 0.001 to 0.1 µM |
| – | 2′-chloro-5′-methoxy-N-(5-(8-methoxyimidazo[1,5-a]pyridine-5-carbonyl)-5,6-dihydro-4H-pyrrolo[3,4-d]thiazol-2-yl)-6-methyl-[4,4′-bipyridine]-3-carboxamide [Example 627] | IC50 (DLD1 BRCA2 (−/−) cells; 7-day CellTiter-Glo): 0.001 to 0.1 µM |
| 0.015 to 0.05 | COc1cnc(Cl)cc1-c1cc(C)ncc1C(=O)Nc1nc2c(s1)CN(C(=O)C1CC(OC)(C(F)(F)F)C1)C2 (racemic) [Example 103, (Racemic)-2′-chloro-5′-methoxy-N-(5-(3-methoxy-3-(trifluoromethyl)cyclobutane-1-carbonyl)-5,6-dihydro-4H-pyrrolo[3,4-d]thiazol-2-yl)-6-methyl-[4,4′-bipyridine]-3-carboxamide] | – |
| 0.15 to 0.9 | COc1ccccc1-c1cc(C)ncc1C(=O)Nc1nc2c(s1)CN(C(=O)C1COC1)C2 [Example 256] | – |
| 0.05 to 0.15 | COc1ccccc1-c1cc(C)ncc1C(=O)Nc1nc2c(s1)CN(C(=O)c1ncco1)C2 | – |
| – | COc1cnc(Cl)cc1-c1cc(C)ncc1C(=O)Nc1nc2c(s1)CN(C(=O)c1ccc(C(F)(F)F)nc1OC)C2C (single isomer, unassigned) [Example 1037, (R or S)-2′-chloro-5′-methoxy-N-(5-(2-methoxy-6-(trifluoromethyl)nicotinoyl)-4-methyl-5,6-dihydro-4H-pyrrolo[3,4-d]thiazol-2-y])-6-methyl-[4,4′-bipyridine]-3-carboxamide] | IC50 ([1]; POLθ ATPase, ADP-Glo): 0.015 to 0.05 µM |
| 0.05 to 0.15 | COc1ccccc1-c1cc(C)ncc1C(=O)Nc1nc2c(s1)CN(C(=O)C1(c3ccccn3)CC1)C2 (racemic) | – |
| 0.001 to 0.015 | COc1cnc(Cl)cc1-c1cc(C)ncc1C(=O)Nc1nc2c(s1)CN(C(=O)c1cnn(C)c1C(F)F)C2 [Example 91, 2′-chloro-N-(5-(5-(difluoromethyl)-1-methyl-1H-pyrazole-4-carbonyl)-5,6-dihydro-4H-pyrrolo[3,4-d]thiazol-2-yl)-5′-methoxy-6-methyl-[4,4′-bipyridine]-3-carboxamide] | – |
| ≥ 0.9 | COc1ccc(C#N)cc1-c1cc(C)ncc1C(=O)Nc1nc2c(s1)CN(C(=O)C1CCCCO1)CC2 (single isomer, unassigned) [Example 215] | – |
| 0.001 to 0.015 | COc1cnc(Cl)cc1-c1cc(C)ncc1C(=O)Nc1nc2c(s1)CN(C(=O)[C@@H]1CCC[C@@H](OC)C1)C2 | – |
| 0.15 to 0.9 | COc1cnc(Cl)cc1-c1cc(C)ncc1C(=O)Nc1nc2c(s1)CC(C(=O)NC1CC1)CC2 (single isomer, unassigned) [Example 154] | – |
| – | COc1cnc(Cl)cc1-c1cc(C)ncc1C(=O)Nc1nc2c(s1)CN(C(=O)c1ccc(Cl)c(C(F)F)c1)C2 | IC50 ([1]; POLθ ATPase, ADP-Glo): 0.001 to 0.015 µM |
| 0.001 to 0.015 | COc1ccc(C#N)cc1-c1cc(C)ncc1C(=O)Nc1nc2c(s1)CN(C(=O)C1CCC1)C2 | – |
| 0.05 to 0.15 | COc1ccccc1-c1cc(C)ncc1C(=O)Nc1nc2c(s1)CN(C(=O)c1ncn(C)n1)C2 | – |
| 0.001 to 0.015 | COc1cnc(Cl)cc1-c1cc(C)ncc1C(=O)Nc1nc2c(s1)CN(C(=O)c1cn(C)nc1C)C2 (racemic) | – |
| 0.15 to 0.9 | COc1cnc(Cl)cc1-c1cc(C)ncc1C(=O)Nc1nc2c(s1)C[C@@H](C(=O)NC1CCC1)CC2 (single isomer, unassigned) [Example 29, (S or R)-2-(2′-chloro-5′-methoxy-6-methyl-[4,4′-bipyridine]-3-carboxamido)-N-cyclobutyl-4,5,6,7-tetrahydrobenzo[d]thiazole-6-carboxamide] | – |
| – | COc1cnc(Cl)cc1-c1cc(C)ncc1C(=O)Nc1nc2c(s1)C[C@@H](C(=O)N[C@H]1CC[C@@H]1O)CC2 | IC50 ([1]; POLθ ATPase, ADP-Glo): 0.15 to 0.9 µM |
| 0.001 to 0.015 | COc1cnc(Cl)cc1-c1cc(C)ncc1C(=O)Nc1nc2c(s1)CN(C(=O)c1nn(C(F)F)cc1Cl)C2 [Example 55, 2′-chloro-N-(5-(4-chloro-1-(difluoromethyl)-1H-pyrazole-3-carbonyl)-5,6-dihydro-4H-pyrrolo[3,4-d]thiazol-2-yl)-5′-methoxy-6-methyl-[4,4′-bipyridine]-3-carboxamide] | – |
| 0.15 to 0.9 | COc1ccc(C#N)cc1-c1cc(C)ncc1C(=O)Nc1nc2c(s1)CN(C(=O)[C@@H]1CCCO1)CC2 | – |
| 0.15 to 0.9 | COc1ccccc1-c1cc(C)ncc1C(=O)Nc1nc2c(s1)CN(C(=O)C1(C#N)CCC1)C2 | – |
| 0.05 to 0.15 | COc1ccccc1-c1cc(C)ncc1C(=O)Nc1nc2c(s1)CN(C(=O)c1cncc(C#N)c1)C2 | – |
| – | COc1cnc(Cl)cc1-c1cc(C)ncc1C(=O)Nc1nc2c(s1)C[C@H](C(=O)N[C@@H]1CC[C@@H]1O)CC2 | IC50 ([1]; POLθ ATPase, ADP-Glo): 0.15 to 0.9 µM |

| IC50 [1] [µM] | Compound | other results |
| --- | --- | --- |
| 0.05 to 0.15 | COc1ccccc1-c1cc(C)ncc1C(=O)Nc1nc2c(s1)CC(c1ccc(Cl)cc1)CC2 (centres unmarked) [listing 1 of 2 here] | – |
| 0.05 to 0.15 | COc1cnc(Cl)cc1-c1cc(C)ncc1C(=O)Nc1nc2c(s1)C[C@@H](NC(=O)C1CC1)CC2 [Example 200] | – |
| – | COc1cnc(Cl)cc1-c1cc(C)ncc1C(=O)Nc1nc2c(s1)CN(C(=O)c1ncncc1Cl)C2 | IC50 ([1]; POLθ ATPase, ADP-Glo): 0.001 to 0.015 µM |
| 0.15 to 0.9 | COc1ccccc1-c1cc(C)ncc1C(=O)Nc1nc2c(s1)CC(c1ccc(Cl)cc1)CC2 (centres unmarked) [listing 2 of 2 here] | – |
| 0.05 to 0.15 | COc1ccc(C#N)cc1-c1cc(C)ncc1C(=O)Nc1nc2c(s1)CN(S(=O)(=O)C1CCOCC1)C2 | – |
| 0.15 to 0.9 | COc1ccc(C#N)cc1-c1cc(C)ncc1C(=O)Nc1nc2c(s1)CN(C(=O)C1CCCC1)CC2 (single isomer, unassigned) | – |
| – | COc1ccc(C#N)cc1-c1cc(C)ncc1C(=O)Nc1nc2c(s1)CN(C(=O)c1ccc(Cl)c(C(F)F)c1)C2 | IC50 ([1]; POLθ ATPase, ADP-Glo): 0.001 to 0.015 µM |
| 0.015 to 0.05 | COc1ccccc1-c1cc(C)ncc1C(=O)Nc1nc2c(s1)CN(S(=O)(=O)N1CCOCC1)C2 | – |
| ≥ 0.9 | COc1ccccc1-c1cc(C)ncc1C(=O)Nc1nc2c(s1)CCN(C(=O)OC(C)(C)C)C2 | – |
| 0.015 to 0.05 | COc1cn2cncc2cc1-c1cc(C)ncc1C(=O)Nc1nc2c(s1)CN(C(=O)[C@H]1C[C@H](OC(F)(F)F)C1)C2 [Example 22, 4-(6-methoxyimidazo[1,5-a]pyridin-7-yl)-6-methyl-N-(5-((1r,3r)-3-(trifluoromethoxy)cyclobutane-1-carbonyl)-5,6-dihydro-4H-pyrrolo[3,4-d]thiazol-2-yl)nicotinamide] | – |
| 0.05 to 0.15 | COc1ccccc1-c1cc(C)ncc1C(=O)Nc1nc2c(s1)CC(Nc1ccccc1)CC2 (centres unmarked) | – |
| 0.015 to 0.05 | COc1cnc(Cl)cc1-c1cc(C)ncc1C(=O)Nc1nc2c(s1)CN(C(=O)c1nccn1C)C2 [Example 23, 2′-chloro-5′-methoxy-6-methyl-N-(5-(1-methyl-1H-imidazole-2-carbonyl)-5,6-dihydro-4H-pyrrolo[3,4-d]thiazol-2-yl)-[4,4′-bipyridine]-3-carboxamide] | – |
| 0.015 to 0.05 | COc1ccc(C#N)cc1-c1cc(C)ncc1C(=O)Nc1nc2c(s1)CN(S(=O)(=O)C1CCCOC1)C2 (racemic) [Example 233] | – |
| 0.015 to 0.05 | CCNS(=O)(=O)N1Cc2nc(NC(=O)c3cnc(C)cc3-c3ccccc3OC)sc2C1 | – |
| 0.15 to 0.9 | COc1ccccc1-c1cc(C)ncc1C(=O)Nc1nc2c(s1)CN(C(=O)C1CCNC1=O)C2 (centres unmarked) [Example 345] | – |
| 0.015 to 0.05 | COc1cnc(Cl)cc1-c1cc(C)ncc1C(=O)Nc1nc2c(s1)CN(C(=O)c1ncn(C(C)C)n1)C2 [Example 77, 2′-chloro-N-(5-(1-isopropyl-1H-1,2,4-triazole-3-carbonyl)-5,6-dihydro-4H-pyrrolo[3,4-d]thiazol-2-yl)-5′-methoxy-6-methyl-[4,4′-bipyridine]-3-carboxamide] | – |
| – | COc1cnc(Cl)cc1-c1cc(C)ncc1C(=O)Nc1nc2c(s1)C[C@H](C(=O)N[C@H]1CC[C@@H]1O)CC2 | IC50 ([1]; POLθ ATPase, ADP-Glo): 0.15 to 0.9 µM |
| 0.05 to 0.15 | COc1ccccc1-c1cc(C)ncc1C(=O)Nc1nc2c(s1)CN(C(=O)c1ccncc1)C2 | – |
| 0.015 to 0.05 | COc1cnc(Cl)cc1-c1cc(C)ncc1C(=O)Nc1nc2c(s1)CN(C(=O)[C@H]1CCOC1)C2 | – |
| 0.015 to 0.05 | COc1cnc(Cl)cc1-c1cc(C)ncc1C(=O)Nc1nc2c(s1)CN(C(=O)[C@H]1C[C@](F)(CO)C1)C2 [Example 105, 2′-chloro-N-(5-((1s,3s)-3-fluoro-3-(hydroxymethyl)cyclobutane-1-carbonyl)-5,6-dihydro-4H-pyrrolo[3,4-d]thiazol-2-yl)-5′-methoxy-6-methyl-[4,4′-bipyridine]-3-carboxamide] | – |
| 0.15 to 0.9 | COc1ccccc1-c1cc(C)ncc1C(=O)Nc1nc2c(s1)CN(C(=O)C1(O)COC1)C2 | – |
| 0.15 to 0.9 | COc1ccc(C#N)cc1-c1cc(C)ncc1C(=O)Nc1nc2c(s1)CN(C(=O)C1CCOC1)CC2 (centres unmarked) | – |
